Measurements taken from patent US20240302280A1, “PREPARATION METHOD AND APPLICATION OF VISCOSITY FLUORESCENT PROBE” (Zhengzhou University of Light Industry, priority 2023, published 2024).

Experiments:
[1] = Spectral response of the probe to solution viscosity (glycerol/MeOH); type: physicochemical; details: viscosity increased from 1.4 cp to 955 cp by glycerol/MeOH volume ratio
Source text: Therefore, it may be concluded that the fluorescence intensity of TzAr-Nap-OH may be used as a reliable indicator for a quantitative viscosity sensor.

[2] = Effect of solution pH on probe fluorescence in PBS/THF (4/1); type: physicochemical; details: pH range 1.64 to 11.45
Description: 20 μL of the fluorescent probe stock solution were taken and added dropwise into a PBS/THF (4/1) system, resulting in a final volume of 2 mL.

[3] = Effect of interfering substances on probe fluorescence in PBS/THF (4/1); type: physicochemical; details: 10 μM interfering substances
Description: 20 μL of the fluorescent probe stock solution were taken and added dropwise into the PBS/THF (4/1) system, into which 10 μM of other interfering substance solutions were added dropwise, resulint in a final volume is 2 mL. Other interfering substances had little effect on the fluorescence intensity of TzAr-Nap-OH.

[4] = system: HeLa cells; assay: MTT cytotoxicity experiment; type: cell-based; details: 0-20 μM probe, 24 hours
[5] = system: HeLa cells; assay: Cell imaging of response to viscosity (monensin-treated cells); type: cell-based; details: probe 10 μM, 30 min, λex=360 nm
Description: FIG. 9 is a fluorescence image of Hela cells; (a-c) HeLa cells were cultured with TzAr-Nap-OH (10 μM) for 30 minutes; (d-f) HeLa cells were treated with monensin (Mo) and incubated with the TzAr-Nap-OH probe for 30 minutes; λex=360 nm, slit=5 nm, scale bar=20 μm.
Images a-c were obtained by treating HeLa cells with TzAr-Nap-OH (10 μM) for 30 mins. HeLa cells were first treated with monensin to increase cell viscosity, and then treated with TzAr-Nap-OH (10 μM) to obtain images d-f.

## Oc1ccc2cc(/C=C/c3nc(-c4ccccc4)nc(-c4ccccc4)n3)ccc2c1 [TzAr-Nap-OH]
[1]
  increase of fluorescence intensity at 520 nm: ~15 times
[2]
  change of fluorescence intensity with pH: did not change significantly
[3]
  effect of other interfering substances on fluorescence intensity: little effect
[4]
  survival rate (cell viability): over 81%
[5]
  fluorescence intensity of monensin-treated cells versus normal cells: significantly higher
